Here are results for 15 compounds from paper PMC11859309, “Design, Synthesis, and Computational Evaluation of 3,4-Dihydroquinolin-2(1H)-One Analogues as Potential VEGFR2 Inhibitors in Glioblastoma Multiforme” (Pharmaceuticals, 2025).

For orientation: IC50 means the concentration that inhibits the measured activity by half. Read a high IC50 as weaker potency in that assay. Broadly, the inhibition is the percentage by which the read-out fell short of the control.

Series [1] deals with U87-MG glioblastoma cell line. The series is described as follows: MTT cell proliferation assay, U87-MG. Type of series: cell-based. The following applies: for activity at 10 µM: compound 10 μM, 48 h, read-out: Cell Proliferation ± Std dev. (%) U87; for IC50: 0–160 μM. As to the method:
(§1) U87-MG (HTB-16) and U138-MG (HTB-14) lines were purchased from ATCC. The cells were cultured in DMEM-HG Medium (41966-029, Gibco, Grand Island, NE, USA) and supplemented with 10% fetal bovine serum (FBS, 10500-064, Gibco) and 1% Penicillin–Streptomycin (P/S, 15140-122, Gibco). After 24 h of seeding cells, all compounds dissolved in 0.4% dimethyl sulfoxide (DMSO, A3672-0250, AppliChem, Darmstadt, Germany) were treated in the cells.
(§2) The proliferation effects of the drug candidates on the U87-MG and U138-MG cell lines were tested using the MTT (3-(4,5-dimethylthiazol-2-yl)-2,5-diphenyltetrazolium bromide) assay. A total of 7 × 10^3 cells per well of both U87-MG and U138-MG cells were seeded into a 96-well plate in triplicate for the assay. After 24 h, each compound was added at a dose of 10 μM and incubated for 48 h. After the incubation period, 10 μL of MTT solution (5 mg/mL in PBS) was added to each well. The MTT solution was aspirated from the wells after 2 h. Then, 100 μL of DMSO was added and mixed to dissolve the formazan crystals. Cell proliferation was analysed by measuring the absorbance of the dissolved formazan at a wavelength of 570 nm using a microplate reader (Epoch, San Jose, CA, USA). […] Each experiment was carried out in triplicate to ensure reliability and statistical significance.

The test system of series [2] is U138-MG glioblastoma cell line. The series is described as follows: MTT cell proliferation assay, U138-MG. Type of series: cell-based. To be noted: for IC50 / activity at 10 µM / inhibition at 10 µM: Homo sapiens; for IC50 / activity at 10 µM: MTT; for IC50: 0–160 μM; for activity at 10 µM: compound 10 μM, 48 h, read-out: Cell Proliferation ± Std dev. (%) U138; for inhibition at 10 µM: read-out: cell inhibition percentage (activity). As to the method: as §1
as §2, with “After 24 h, each compound was added at a dose of 10 μM and incubated for 48 h.” left out
Background: Tetrazolium dyes change colour on reduction, which living cells bring about.

Series [3] can be described thus: PAMPA, BBB-mimicking membrane. To be noted: 500 μM, 18 h, 37 °C. Type of series: in vitro ADME. How it is done:
(§3) The permeability of the synthesised compounds was evaluated using the parallel artificial membrane permeability assay (PAMPA) to estimate their ability to cross biological membrane mimics of both the gastrointestinal (GI) membrane and the blood–brain barrier (BBB).
(§4) The PAMPA assay (BioAssay System, Hayward, CA 94545, USA) has been used for testing the permeability rates of drugs through the BBB-mimicking membrane. […] The permeability assay was performed for 18 h in a 37 °C incubator.
On the technique in general: In PAMPA a lipid-coated filter parts donor from acceptor wells.

The nature of series [4]: PAMPA, GI-mimicking membrane. To be noted: class relative to high and low permeability controls. Type of series: in vitro ADME. How it is done: as §3, §4
Where [5] appears, read: equals 100 minus cell proliferation of Table 1 (10 μM, 48 h).

In the case of `O=C(COc1ccc2c(c1)CCC(=O)N2)N/N=C/c1cnc(-c2ccc(Cl)cc2)nc1` [4q, (E)-N′-((2-(4-Chlorophenyl)Pyrimidin-5-Yl)Methylene)-2-((2-Oxo-1,2,3,4-Tetrahydroquinolin-6-Yl)Oxy)Acetohydrazide], the activity at 10 µM in series [1] (Homo sapiens, U-87 MG) was 67 ± 4.9%; in series [2], 39 ± 3%. For the same compound, the IC50 in series [2] stood at 8 µM. Moreover, the inhibition at 10 µM in series [2] (setting [5]) worked out at 61%.

As for `O=C(COc1ccc2c(c1)CCC(=O)N2)N/N=C1\C(=O)Nc2ccc(F)cc21` [4m, (Z)-N′-(5-Fluoro-2-Oxoindolin-3-Ylidene)-2-((2-Oxo-1,2,3,4-Tetrahydroquinolin-6-Yl)Oxy)Acetohydrazide], in series [2], inhibition was half-maximal at 4.2 µM (IC50).

For the compound `O=C(COc1ccc2c(c1)CCC(=O)N2)N/N=C/c1ccc(-c2ccc(Cl)cc2)cc1` [4w, (E)-N′-((4′-Chloro-[1,1′-Biphenyl]-4-Yl)Methylene)-2-((2-Oxo-1,2,3,4-Tetrahydroquinolin-6-Yl)Oxy)Acetohydrazide], the activity at 10 µM came out at 63 ± 2.5% in series [1] (Homo sapiens, U-87 MG) and 80 ± 6.9% in series [2]. Besides, the inhibition at 10 µM in series [2] (setting [5]) came out at 20%.

Take `O=C(COc1ccc2c(c1)CCC(=O)N2)N/N=C/c1cccc(Oc2ccc(Cl)cc2)c1` [4t, (E)-N′-(3-(4-Chlorophenoxy)Benzylidene)-2-((2-Oxo-1,2,3,4-Tetrahydroquinolin-6-Yl)Oxy)Acetohydrazide]: the half-maximal inhibitory concentration (IC50) in series [1] came out at 10.5 µM; in series [1] (Homo sapiens, U-87 MG) it was 10.7 µM. Moreover, the activity at 10 µM in series [1] (Homo sapiens, U-87 MG) came out at 50 ± 3.2%; in series [2], 65 ± 3.5%. Also, the “Permeability through BBB-mimicking membrane (class in words)” value in series [3] is given as “high permeability”.

Turning to `O=C(COc1ccc2c(c1)CCC(=O)N2)N/N=C/c1ccc(F)cc1` [4s, (E)-N′-(4-Fluorobenzylidene)-2-((2-Oxo-1,2,3,4-Tetrahydroquinolin-6-Yl)Oxy)Acetohydrazide], the “Permeability through GI-mimicking membrane (class in words)” value in series [4] was “high permeability”.

As to `O=C(COc1ccc2c(c1)CCC(=O)N2)N/N=C/c1cccc2ccccc12` [4u, (E)-N′-(Naphthalen-1-Ylmethylene)-2-((2-Oxo-1,2,3,4-Tetrahydroquinolin-6-Yl)Oxy)Acetohydrazide], the half-inhibitory concentration (IC50) in series [1] (Homo sapiens, U-87 MG) was determined as 7.96 µM.

For `O=C(COc1ccc2c(c1)CCC(=O)N2)N/N=C1\C(=O)Nc2ccc([N+](=O)[O-])cc21` [4o, (Z)-N′-(5-Nitro-2-Oxoindolin-3-Ylidene)-2-((2-Oxo-1,2,3,4-Tetrahydroquinolin-6-Yl)Oxy)Acetohydrazide], the “cell inhibition percentage (activity)” value in series [2] (setting [5]) was “moderate activity”.

As to `CN1C(=O)/C(=N\NC(=O)COc2ccc3c(c2)CCC(=O)N3)c2cc(F)ccc21` [4l, (Z)-N′-(5-Fluoro-1-Methyl-2-Oxoindolin-3-Ylidene)-2-((2-Oxo-1,2,3,4-Tetrahydroquinolin-6-Yl)Oxy)Acetohydrazide], the activity at 10 µM in series [2] was determined as 73 ± 3.6%.

Regarding `O=C(COc1ccc2c(c1)CCC(=O)N2)N/N=C/c1ccc(-c2ccccc2)cc1` [4v, (E)-N′-([1,1′-Biphenyl]-4-Ylmethylene)-2-((2-Oxo-1,2,3,4-Tetrahydroquinolin-6-Yl)Oxy)Acetohydrazide], the IC50 in series [1] (Homo sapiens, U-87 MG) is 11.7 µM.

Consider `CCCc1ccc(/C=N/NC(=O)COc2ccc3c(c2)CCC(=O)N3)cc1` [4h, (E)-2-((2-Oxo-1,2,3,4-Tetrahydroquinolin-6-Yl)Oxy)-N′-(4-Propylbenzylidene)Acetohydrazide], for which the activity at 10 µM in series [2] was determined as 100 ± 2.3%. The inhibition at 10 µM in series [2] (setting [5]) amounted to 0%. Moreover, the “Permeability through BBB-mimicking membrane (class in words)” value in series [3] is listed as “high permeability”.

With `O=C(COc1ccc2c(c1)CCC(=O)N2)N/N=C/c1ccc(Cl)cc1` [4b, (E)-N′-(4-Chlorobenzylidene)-2-((2-Oxo-1,2,3,4-Tetrahydroquinolin-6-Yl) Oxy) Acetohydrazide], the inhibition at 10 µM in series [2] (setting [5]) came out at 40%.

In the case of `O=C(COc1ccc2c(c1)CCC(=O)N2)N/N=C/c1ccccc1` [4j, (E)-N′-Benzylidene-2-((2-Oxo-1,2,3,4-Tetrahydroquinolin-6-Yl)Oxy)Acetohydrazide], the “Permeability through BBB-mimicking membrane (class in words)” value in series [3] is on record as “high permeability”.

In the case of `O=C(COc1ccc2c(c1)CCC(=O)N2)NN=Cc1cccs1` [4d, 2-((2-Oxo-1,2,3,4-Tetrahydroquinolin-6-Yl)Oxy)-N′-(Thiophen-2-Ylmethylene)Acetohydrazide], in series [4], the “Permeability through GI-mimicking membrane (class in words)” value was “high permeability”.

Consider `Cc1[nH]c2ccccc2c1/C=N/NC(=O)COc1ccc2c(c1)CCC(=O)N2` [4g, (E)-N′-((2-Methyl-1H-Indol-3-Yl)Methylene)-2-((2-Oxo-1,2,3,4-Tetrahydroquinolin-6-Yl)Oxy)Acetohydrazide], for which it took 9.2 µM to reach half-maximal inhibition in series [2] (IC50).

As to `Cn1nnc2c(C(N)=O)ncn2c1=O` [TMZ, temozolomide, reference compound], the concentration for half-maximal inhibition (IC50) worked out at 92.9 µM in series [1] (Homo sapiens, U-87 MG) and 93.1 µM in series [2]. The activity at 10 µM was determined as 80 ± 5% in series [1] (Homo sapiens, U-87 MG) and 78 ± 5% in series [2]. For the same compound, in series [3], the “Permeability through BBB-mimicking membrane (class in words)” value is reported as “lower permeability”. Besides, the “Permeability through GI-mimicking membrane (class in words)” value in series [4] is “lower permeability”.
